Common to all, as to assay type: in vivo
Assay [1] deals with Magnaporthe grisea; Anamorph: Pyricularia oryzae. Nature of the assay: whole plant or invertebrate. To be noted: 24 h, read-out: PYRIOR 1 DP disease control.
Assay [2] relates to Mycosphaerella graminicola; Anamorph: Septoria tritici. In words: Leaf blotch of wheat (SEPTTR) disease control on wheat seedlings. To be noted: Zymoseptoria tritici, High volume application, 100 ppm. Summed up:
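Wheat seedlings (Yuma, first leaf emerged) sprayed to run-off with compound in acetone/water with 110 ppm Triton X-100, or track-sprayed as EC with 0.1% Trycol 5941. Septoria tritici spores inoculated before or after treatment. Dew chambers, then 20 °C greenhouse. Percent disease control derived from severity (0–100%) relative to untreated plants.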

The test system of another assay is Cercospora beticola. Nature of the assay: Leaf spot of sugar beets (CERCBE) disease control. To be noted: 24 h, 1 Day Protectant, high volume, read-out: Disease Control CERCBE 1 DP. The procedure:
Technical grades of materials were dissolved in acetone, which were then mixed with nine volumes of water containing 110 ppm Triton X-100. The fungicide solutions were applied onto wheat seedlings using an automated booth sprayer to run-off. All sprayed plants were allowed to air dry prior to further handling. All fungicides were evaluated using the aforementioned method for their activity vs. all target diseases. Wheat leaf blotch and brown rust activity were also evaluated using track spray applications, in which case the fungicides were formulated as EC formulations, containing 0.1% Trycol 5941 in the spray solutions. Sugar beet plants (variety HH88) were grown in soil-less Metro mix and trimmed regularly to maintain a uniform plant size prior to test. Plants were inoculated with a spore suspension 24 hr after fungicide treatments. Inoculated plants were kept in a dew chamber at 22° C. for 48 hr then incubated in a greenhouse set at 24° C. under a clear plastic hood with bottom ventilation until disease symptoms were fully expressed. Fungicide formulation, application and disease assessment on the sprayed leaves followed the procedures as described in the Example A.

In assay [3] the test system is Blumeria graminis f. sp. hordei; Synonym: Erysiphe graminis f. sp. hordei. In words: Barley powdery mildew (ERYSGH) disease control. The following applies: 24 h, 1 Day Protectant, high volume, read-out: Disease Control ERYSGH 1 DP. As to the method:
Technical grades of materials were dissolved in acetone, which were then mixed with nine volumes of water containing 110 ppm Triton X-100. The fungicide solutions were applied onto wheat seedlings using an automated booth sprayer to run-off. All sprayed plants were allowed to air dry prior to further handling. All fungicides were evaluated using the aforementioned method for their activity vs. all target diseases. Wheat leaf blotch and brown rust activity were also evaluated using track spray applications, in which case the fungicides were formulated as EC formulations, containing 0.1% Trycol 5941 in the spray solutions. Barley seedlings (variety Harrington) were propagated in soil-less Metro mix, with each pot having 8 to 12 plants, and used in the test when first leaf was fully emerged. Test plants were inoculated by dusting with infected stock plants 24 hr after fungicide treatments. After inoculation the plants were kept in a greenhouse set at 20° C. for disease to develop. Fungicide formulation, application and disease assessment on the sprayed leaves followed the procedures as described in the Example A.

The subject of the next assay is Phakopsora pachyrhizi. Nature of the assay: Asian soybean rust (PHAKPA) disease control. The following applies: topical, high volume. In short, it runs like this: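 Compounds in acetone diluted with nine volumes water containing 0.011% Tween 20, sprayed to run-off on two-week-old Williams 82 soybean seedlings, inoculated 3 days before or 1 day after treatment. Plants held 24 h in dark dew room at 22 °C, 100% RH, then at 23 °C; disease severity scored on sprayed leaves.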

Where [4] appears, read: 24 h, 1 Day Protectant, read-out: SEPTTR 1DP disease control.
[5] abbreviates: 72 h, 3 Day Curative, read-out: SEPTTR 3DC disease control.
The mark [6] stands for this setting: 24 h, 1 Day Protectant, read-out: Disease Control PHAKPA 1DP.
The mark [7] stands for this setting: 72 h, 3 Day Curative, read-out: Disease Control PHAKPA 3DC.

Read-outs that look alike come from different tables or passages of the source.

In the case of `COc1ccc(O[C@H]2CCC[C@H](NC(=O)c3nccc(OC)c3OCOC(=O)C(C)C)C(=O)O[C@@H](C)[C@@H]2OC2CCCC2)cc1` [F169], the pest or weed control at 100 ppm in assay [1] is 80 to 100%; in assay [2] (setting [4]) it was 80 to 100%; in assay [2] (setting [5]), 80 to 100%; in the assay on Cercospora beticola, 80 to 100%; in assay [3], 0 to 80%.

On to `CCCO[C@H]1CCC[C@H](NC(=O)c2nccc(OC)c2OCOC(C)=O)C(=O)O[C@@H](C)[C@@H]1OC1CCCC1` [F155], for which the pest or weed control at 100 ppm (in assay [1]; in assay [2] (setting [4]); in assay [2] (setting [5]); in the assay on Cercospora beticola; in assay [3]) was 80 to 100% each time. The pest or weed control at 25 ppm in the assay on Phakopsora pachyrhizi (setting [6]) and in the assay with Phakopsora pachyrhizi (setting [7]) was 80 to 100% in each case.

Take `CCCO[C@H]1CCC[C@H](NC(=O)c2nccc(OC)c2OCOC(=O)C(C)C)C(=O)O[C@@H](C)[C@@H]1OC1CCCC1` [F154]: the pest or weed control at 100 ppm (in assay [1]; in assay [2] (setting [4]); in assay [2] (setting [5]); with Cercospora beticola; in assay [3]) was 80 to 100% in each case. The pest or weed control at 25 ppm in the assay on Phakopsora pachyrhizi (setting [6]) and with Phakopsora pachyrhizi (setting [7]) was 80 to 100% throughout.

For the compound `COc1ccnc(C(=O)N[C@H]2CCC[C@H](Oc3ccccc3)[C@@H](OCCCc3ccccc3)[C@H](C)OC2=O)c1OCOC(C)=O` [F130], the pest or weed control at 100 ppm fell in the range of 80 to 100% in assay [1]; 80 to 100% in assay [2] (setting [4]); 80 to 100% in assay [2] (setting [5]); 80 to 100% with Cercospora beticola; 0 to 80% in assay [3]. Further, the values for the pest or weed control at 25 ppm in the assay with Phakopsora pachyrhizi (setting [6]) and in the assay with Phakopsora pachyrhizi (setting [7]) were 80 to 100% and 0 to 80%, respectively.

As to `CCCO[C@H]1CCC[C@H](NC(=O)c2nccc(OC)c2OCOC(C)=O)C(=O)O[C@@H](C)[C@@H]1Oc1ccccc1` [F138], the pest or weed control at 100 ppm in assay [1] lay in the range of 80 to 100%; in assay [2] (setting [4]), 80 to 100%; in assay [2] (setting [5]), 80 to 100%; with Cercospora beticola it was 80 to 100%; in assay [3], 0 to 80%. Further, the pest or weed control at 25 ppm in the assay on Phakopsora pachyrhizi (setting [6]) and in the assay with Phakopsora pachyrhizi (setting [7]) was 80 to 100% each time.

For `COc1ccnc(C(=O)N[C@H]2CCC[C@H](OCC(C)C)[C@@H](OC3CCCC3)[C@H](C)OC2=O)c1OCOC(=O)C(C)C` [F38], the pest or weed control at 100 ppm (in assay [1]; in assay [2] (setting [4]); in assay [2] (setting [5]); in the assay with Cercospora beticola; in assay [3]) was 80 to 100% in each case. Also, the pest or weed control at 25 ppm in the assay with Phakopsora pachyrhizi (setting [6]) and with Phakopsora pachyrhizi (setting [7]) was 80 to 100% in each case.

Turning to `COc1ccnc(C(=O)N[C@H]2CCC[C@H](OCCCC(F)(F)F)[C@@H](OC3CCCC3)[C@H](C)OC2=O)c1OCOC(C)=O` [F172], the pest or weed control at 100 ppm in assay [1] lay within 80 to 100%; in assay [2] (setting [4]), 80 to 100%; in assay [2] (setting [5]), 80 to 100%; with Cercospora beticola, 80 to 100%; in assay [3], 0 to 80%. For the same compound, the pest or weed control at 25 ppm in the assay on Phakopsora pachyrhizi (setting [6]) and in the assay on Phakopsora pachyrhizi (setting [7]) was 80 to 100% throughout.

For the compound `COc1ccnc(C(=O)N[C@H]2CCC[C@H](OC3CCCC3)[C@@H](OCCCc3ccccc3)[C@H](C)OC2=O)c1OCOC(C)=O` [F165], the pest or weed control at 100 ppm in assay [1] was 80 to 100%; in assay [2] (setting [4]), 80 to 100%; in assay [2] (setting [5]), 80 to 100%; with Cercospora beticola it was 80 to 100%; in assay [3], 0 to 80%. Further, the results for the pest or weed control at 25 ppm with Phakopsora pachyrhizi (setting [6]) and in the assay with Phakopsora pachyrhizi (setting [7]) were 80 to 100% and 0 to 80%, respectively.

`COc1ccnc(C(=O)N[C@H]2CCC[C@H](OCC(C)C)[C@@H](Oc3ccccc3)[C@H](C)OC2=O)c1OCOC(=O)C(C)C` [F34]: the pest or weed control at 100 ppm was 80 to 100% in assay [1]; 80 to 100% in assay [2] (setting [4]); 80 to 100% in assay [2] (setting [5]); 80 to 100% in the assay on Cercospora beticola; 0 to 80% in assay [3]. Also, the pest or weed control at 25 ppm in the assay with Phakopsora pachyrhizi (setting [6]) and in the assay on Phakopsora pachyrhizi (setting [7]) was 80 to 100% each time.

`COc1ccnc(C(=O)N[C@H]2CCC[C@H](OCC(C)C)[C@@H](OCC(C)C)[C@H](C)OC2=O)c1OCOC(=O)C(C)C` [F37]: the pest or weed control at 100 ppm (in assay [1]; in assay [2] (setting [4]); in assay [2] (setting [5]); with Cercospora beticola; in assay [3]) was 80 to 100% each time. Besides, the pest or weed control at 25 ppm in the assay with Phakopsora pachyrhizi (setting [6]) lay in the range of 80 to 100%.

With `CCCO[C@H]1CCC[C@H](NC(=O)c2nccc(OC)c2OC(=O)CCOC)C(=O)O[C@@H](C)[C@@H]1Oc1ccccc1` [F140], the pest or weed control at 100 ppm in assay [1] is 80 to 100%; in assay [2] (setting [4]) it was 80 to 100%; in assay [2] (setting [5]) it was 80 to 100%; in the assay with Cercospora beticola it was 80 to 100%; in assay [3], 0 to 80%. For the same compound, the pest or weed control at 25 ppm in the assay on Phakopsora pachyrhizi (setting [6]) and with Phakopsora pachyrhizi (setting [7]) was 80 to 100% each time.

For `COc1ccnc(C(=O)N[C@H]2CCC[C@H](Oc3ccccc3)[C@@H](OCC(C)C)[C@H](C)OC2=O)c1OCOC(=O)C(C)C` [F35], the pest or weed control at 100 ppm (in assay [1]; in assay [2] (setting [4]); in assay [2] (setting [5]); in the assay with Cercospora beticola; in assay [3]) was 80 to 100% throughout. Further, the pest or weed control at 25 ppm with Phakopsora pachyrhizi (setting [6]) was in the range of 80 to 100%.

On to `COc1ccc(O[C@H]2CCC[C@H](NC(=O)c3nccc(OC)c3OCOC(C)=O)C(=O)O[C@@H](C)[C@@H]2OC2CCCC2)cc1` [F170], for which the pest or weed control at 100 ppm in assay [1] was in the range of 80 to 100%; in assay [2] (setting [4]), 80 to 100%; in assay [2] (setting [5]), 80 to 100%; in the assay with Cercospora beticola, 80 to 100%; in assay [3], 0 to 80%. In addition, the pest or weed control at 25 ppm with Phakopsora pachyrhizi (setting [6]) fell in the range of 80 to 100%; in the assay on Phakopsora pachyrhizi (setting [7]), 0 to 80%.

Regarding `COc1ccnc(C(=O)N[C@H]2CCC[C@H](OCCCc3ccccc3)[C@@H](Oc3ccccc3)[C@H](C)OC2=O)c1OC(C)=O` [F134], the pest or weed control at 100 ppm in assay [1] fell in the range of 80 to 100%; in assay [2] (setting [4]), 80 to 100%; in assay [2] (setting [5]) it was 80 to 100%; with Cercospora beticola, 80 to 100%; in assay [3], 0 to 80%.

As to `COc1ccnc(C(=O)N[C@H]2CCC[C@H](OCCCC(F)(F)F)[C@@H](OC3CCCC3)[C@H](C)OC2=O)c1OCOC(=O)C(C)C` [F171], the pest or weed control at 100 ppm lay within 80 to 100% in assay [1]; 80 to 100% in assay [2] (setting [4]); 80 to 100% in assay [2] (setting [5]); 80 to 100% in the assay on Cercospora beticola; 0 to 80% in assay [3].

Take `COCCC(=O)Oc1c(OC)ccnc1C(=O)N[C@H]1CCC[C@H](Oc2ccccc2)[C@@H](OCCCc2ccccc2)[C@H](C)OC1=O` [F132]: the pest or weed control at 100 ppm in assay [1] was in the range of 0 to 80%; in assay [2] (setting [4]), 80 to 100%; in assay [2] (setting [5]) it was 80 to 100%; in the assay with Cercospora beticola, 0 to 80%; in assay [3] it was 0 to 80%.

On to `COc1ccnc(C(=O)N[C@H]2CCC[C@H](OCCCC(F)(F)F)[C@@H](OC3CCCC3)[C@H](C)OC2=O)c1OC(C)=O` [F173], for which the pest or weed control at 100 ppm in assay [1] was in the range of 80 to 100%; in assay [2] (setting [4]) it was 80 to 100%; in assay [2] (setting [5]), 80 to 100%; in the assay with Cercospora beticola, 80 to 100%; in assay [3], 0 to 80%.

Source of the values: US9681664B2, “Macrocyclic picolinamides as fungicides” (Dow Agrosciences LLC, priority 2012, dated 2017).
